Read-outs that look alike come from different tables or passages of the source.
What was measured:
[1] = cited from earlier work
[2] = physchem; details: for logD at 10 µM / logD at 1000 µM / Partition ratio octanol/buffer: octanol/0.1 m phosphate buffer
Method: Octanol/buffer partition ratios: The ratio of concentrations of a given solute in equilibrium distribution between two immiscible solvents is termed the partition coefficient. This expression properly refers only to the distribution of a single molecular species between the two phases. […] Total dye concentration in the two solvent phases was measured without correction for ionization or self-association and the recommended term, "partition ratio", is used to refer to these uncorrected distributions.
Carboxyfluorescein (Eastman Kodak Co., Rochester) or sodium fluorescein (Sigma Chemical Co., St. Louis) was dissolved at concentrations of 10^-3 M or 10^-5 M in octanol-saturated 0.1 M phosphate buffer at different pH values between 6.40 and 8.03. The aqueous dye solutions were equilibrated with equal volumes of buffer-saturated octanol by 100 inversions during 5 minutes, and the phases were separated by centrifugation. Dye concentrations were measured spectrofluorophotometrically at excitation and emmision wavelengths of 487 and 512 nm, respectively, with an Aminco-Bowman Ratio Spectrofluorophotometer.
Two methods were used to calculate partition ratios. In the first, the dye concentration in the aqueous phase was measured before (Cb) and after (Ca) partitioning, and the ratio was obtained from the equation:
P.R.=Coct/Caq=(Cb -Ca)/Ca,
where Coct and Caq are the dye concentration in the octanol and aqueous phases respectively after equilibration. In the second method, concentration in the octanol phase was determined by extracting the dye from octanol with an equal volume 0.1 N NaOH. […] Therefore, dye concentration in the first base extract was accepted as the concentration in the octanol phase and calculated the partition ratio from the equation: […]

[3] = Measurement of unbound dye in plasma of injected rats (dialysis); format: in vivo, male Wistar rats; details: rat; for Plasma unbound dye concentration: blood 2-4 min after injection
Method: (§1) Intra-ocular dye distribution: Young male Wistar rats (180-250 g) under pentobarital anesthesia (50 mg/kg i.p.) were injected intravenously with carboxyfluorescein or fluorescein solutions (pH 7.4) at doses of 12.5, 62.5 and 125 mg/kg. One minute after dye injection, the eyes were removed and immediately frozen in isopentane cooled to -110° C. by a liquid nitrogen bath. Between 2 and 4 minutes after injection a blood sample from the abdominal aorta was drawn into a heparinized syringe for determination of the concentration of unbound dye in plasma. The frozen eyes were dried under vacuum at -35° C. and embedded in paraffin. After embedding the eyes were stored under vacuum at -20° C. to minimize the development of autofluorescence. Additional eyes from normal rats not injected with dye were processed and stored identically for measurement of tissue autofluorescence. Immediately prior to examination with the fluorescence microscope, sections were cut at a thickness of 12 microns, placed on glass slides, and mounted with xylene.
(§2) Measurement of unbound dye in plasma: Plasma was separated by centrifugation from the heparinized blood obtained from rats injected with sodium fluorescein or carboxyfluorescein in the intraocular dye distribution study. The plasma was dialyzed for 24 hours at 37° C. against 0.1 M phosphate buffer at pH 7.4 using cellulose dialysis tubing with a 3500 molecular weight cut-off. Dye concentration was measured in the dialysate spectrofluorophotometrically and from this value calculated the unbound plasma dye concentration.

[4] = cited from earlier work; remark: listed apart in the source
[5] = tested on: active transport system in the anterior uvea; details: outward, from eye to blood; cited from earlier work
[6] = Dialyzable (unbound) fraction of dye in human plasma; format: in vitro ADME; details: human plasma, 37° C., read-out: Dialyzable fraction (mean ± S.E.M.)
Method: as §2
(§3) To study the fraction of unbound dye in human plasma, there was added small aliquots of carboxyfluorescein and sodium fluorescein solutions to plasma separated from heparinized human blood so that the final dye concentration in the plasma was between 10^-3 M and 10^-6 M. The plasma/dye mixture was incubated for 2 hours at 37° C. Then using the dialysis and measuring procedures described above, the ratio of unbound dye to total dye in the plasma mixture was calculated.

[7] = tested on: blood-ocular barriers (choroid and retina); format: in vivo, male Wistar rats; details: rat, iv
Source text: To determine whether a less membrane permeable dye than fluorescein has value as a probe of the structural and functional integrity of the blood-ocular barriers we have undertaken studies of carboxyfluorescein, a compound with the same fluorescence characteristics as fluorescein, but with lower lipid solubility at physiological pH (7). In particular, the lipid solubility of carboxyfluorescein was compared with fluorescein by measuring dye partitioning between octanol and aqueous buffer at different pH to determine solubility behavior relevant to the permeability of cell membranes in vivo. Studies were then made of the ocular distribution carboxyfluorescein in rats after intravenous injection using quantitative fluorescence microscopy; and compared to the results for fluorescein. The plasma binding of carboxyfluorescein was also studied and compared to fluorescein.
as §1
Fluorescence intensity in small areas of the tissue sections was measured with a 450 u fiber optic probe placed in the object plane of an ocular and connected to a photomultiplier tube. An amplified signal from the photomultiplier was recorded with a digital voltmeter. The illumination system consisted of a 50 W high pressure mercury light source and an epifluorescence condensor equipped with a 455-490 nm exciter filter, a 510 nm dichroic beam splitter, and a 520 nm barrier filter. All measurements were performed using a 63X oil objective (N.A. 1.4). With this magnification, an aperture in the object plane restricted the area of illumination to a circle, 24 microns in diameter. The fiber optic probe covered a specimen field, 6 microns in diameter, centered in the larger illuminated field.
Fluorescence intensity of four tissue layers was recorded in the posterior segment: the inner plexiform, outer nuclear, and photoreceptor outer segment layers of the retina, and the choriocapillaris. Each of these layers is of sufficient width so that the illuminated area encompassed a homogeneous field. Foci of intense fluorescence, such as dye filled retinal capillaries, within the illumination field but outside the detection area of the fiber optic probe, can increase the recorded signal by light scatter into the detection area. Fields containing such bright foci were avoided. Examination of the section, location of the area for measurement, and focusing of the image was accomplished under dim green illumination from a tungsten lamp. The illumination was then switched to the fluorescence system, and the maximum value of fluorescence intensity was recorded as voltage. Measurements were made at 12 sites in each layer to obtain the average fluorescence intensities for an individual eye. These values were then corrected for tissue autofluorescence by subtracting the average fluorescence intensity of each layer in eyes from animals not injected with dye. […]

[8] = tested on: cornea; details: topical; cited from earlier work
[9] = tested on: human plasma proteins; assay: Dialyzable (unbound) fraction of dye in human plasma; format: in vitro ADME; details: for Dialyzable fraction (mean ± S.E.M.): human, plasma
Method: as §2, §3

[10] = tested on: rabbit eyes
Method: Carboxyfluorescein was prepared as a 1% solution in water, buffered to pH 7.4. Carboxyfluorescein was made into strip form, using strips of #1 filter paper, impregnated with carboxyfluorescein and allowed to dry. The carboxyfluorescein was applied to rabbit eyes both with the paper impregnated strip and also as a 1% topical drop.

Compound: O=C1OC2(c3ccc(O)cc3Oc3cc(O)ccc32)c2ccccc21 [fluorescein]
- pKa, divalent/monovalent anion ([1]; dianion/monoanion): 6.7
- pKa, monoanion/neutral molecule ([1]; second listed pKa): 4.4
- pKa, neutral molecule/cation ([1]; third listed pKa): 2.2
- logD at 10 µM ([2]; pH 6.42): 1.58
- logD at 1000 µM ([2]; pH 6.42): 1.54
- logD at 10 µM ([2]; pH 6.87): 0.69
- logD at 1000 µM ([2]; pH 6.87): 0.708
- logD at 10 µM ([2]; pH 7.38): -0.194
- logD at 1000 µM ([2]; pH 7.38): -0.292
- logD at 10 µM ([2]; pH 8.03): -1.52
- logD at 1000 µM ([2]; pH 8.03): -1.42
- pH at which partition ratio reaches 1.0 ([2]; octanol/buffer): 7.25
- Plasma unbound dye concentration ([3]; i.v. 12.5 mg/kg): .04 ± .03 mg/mL
- Plasma unbound dye concentration ([3]; i.v. 62.5 mg/kg): .18 ± .01 mg/mL
- Plasma unbound dye concentration ([3]; i.v. 125 mg/kg): .29 ± .01 mg/mL
- Partition coefficient octanol/artificial sea water [4]: 0.6
- Substrate for active transport [5]: serves as a substrate for an active transport system in the anterior uvea
- fraction unbound at 1000 µM ([6]; 10^-3 M): 0.3 ± 0.02
- fraction unbound at 100 µM ([6]; 10^-4 M): 0.33 ± 0.03
- fraction unbound at 10 µM ([6]; 10^-5 M): 0.33 ± 0.01
- fraction unbound at 1 µM ([6]; 10^-6 M): 0.32 ± 0.02
- Fluorescence of iris epithelium ([7]; in vivo): brightly stains the cells of the ciliary and iris epithelium
- Outer segment layer values relative to deeper retinal layers ([7]; in vivo): twice as high
- Tissue relative fluorescence intensity, IPL (mean ± S.E.M.) ([7]; in vivo, 12.5 mg/kg): .021
- Tissue relative fluorescence intensity, ONL (mean ± S.E.M.) ([7]; in vivo, 12.5 mg/kg): .011 ± .001
- Tissue relative fluorescence intensity, choroid (mean ± S.E.M.) ([7]; in vivo, 12.5 mg/kg): .57 ± .03
- Tissue relative fluorescence intensity, outer segments (mean ± S.E.M.) ([7]; in vivo, 12.5 mg/kg): .032 ± .003
- Tissue relative fluorescence intensity, IPL (mean ± S.E.M.) ([7]; in vivo, 62.5 mg/kg): .086
- Tissue relative fluorescence intensity, ONL (mean ± S.E.M.) ([7]; in vivo, 62.5 mg/kg): .076 ± .004
- Tissue relative fluorescence intensity, choroid (mean ± S.E.M.) ([7]; in vivo, 62.5 mg/kg): 2.7 ± .2
- Tissue relative fluorescence intensity, outer segments (mean ± S.E.M.) ([7]; in vivo, 62.5 mg/kg): .153 ± .008
- Tissue relative fluorescence intensity, IPL (mean ± S.E.M.) ([7]; in vivo, 125 mg/kg): .150
- Tissue relative fluorescence intensity, ONL (mean ± S.E.M.) ([7]; in vivo, 125 mg/kg): .196 ± .011
- Tissue relative fluorescence intensity, choroid (mean ± S.E.M.) ([7]; in vivo, 125 mg/kg): 5.7 ± .5
- Tissue relative fluorescence intensity, outer segments (mean ± S.E.M.) ([7]; in vivo, 125 mg/kg): .452 ± .021
- Outer segment layer values relative to choroid ([7]; in vivo, 1 min): 6-8%
- Corneal penetration and artificial aqueous flare [8]: its ready penetration through the cornea into the aqueous humor creates an artificial aqueous flare

Compound: carboxyfluorescein
- Partition ratio octanol/buffer ([2]; 10 µM, pH 6.42): .037
- Partition ratio octanol/buffer ([2]; 10 µM, pH 6.87): .0030
- Partition ratio octanol/buffer ([2]; 10 µM, pH 7.38): .0007
- Partition ratio octanol/buffer ([2]; 1000 µM, pH 6.42): .033
- Partition ratio octanol/buffer ([2]; 1000 µM, pH 6.87): .0028
- Partition ratio octanol/buffer ([2]; 1000 µM, pH 7.38): .0008
- Partition ratio octanol/buffer ([2]; 1000 µM, pH 8.03): .00006
- Partition ratio ([2]; octanol/phosphate buffer, pH 6.4): below 0.1
- Plasma unbound dye concentration compared with fluorescein ([3]; in vivo, iv): significantly higher than in animals injected with fluorescein
- Binding to human plasma proteins compared with fluorescein [9]: consistently less bound to human plasma proteins than fluorescein
- Dialyzable fraction (mean ± S.E.M.) ([9]; 1 µM): .46 ± .01
- Dialyzable fraction (mean ± S.E.M.) ([9]; 10 µM): .51 ± .03
- Dialyzable fraction (mean ± S.E.M.) ([9]; 100 µM): .50 ± .01
- Dialyzable fraction (mean ± S.E.M.) ([9]; 1000 µM): .61 ± .02
- Fluorescence of iris stroma ([7]; in vivo): the intensity of fluorescence is less than that seen with fluorescein
- Tissue relative fluorescence intensity, IPL (mean ± S.E.M.) ([7]; in vivo, 62.5 mg/kg): .001
- Tissue relative fluorescence intensity, ONL (mean ± S.E.M.) ([7]; in vivo, 62.5 mg/kg): .002 ± .001
- Tissue relative fluorescence intensity, choroid (mean ± S.E.M.) ([7]; in vivo, 62.5 mg/kg): 8.0 ± .4
- Tissue relative fluorescence intensity, outer segments (mean ± S.E.M.) ([7]; in vivo, 62.5 mg/kg): .008 ± .001
- Tissue relative fluorescence intensity, IPL (mean ± S.E.M.) ([7]; in vivo, 125 mg/kg): .002
- Tissue relative fluorescence intensity, ONL (mean ± S.E.M.) ([7]; in vivo, 125 mg/kg): .003 ± .001
- Tissue relative fluorescence intensity, choroid (mean ± S.E.M.) ([7]; in vivo, 125 mg/kg): 7.8 ± .8
- Tissue relative fluorescence intensity, outer segments (mean ± S.E.M.) ([7]; in vivo, 125 mg/kg): .006 ± .003
- Permeability of blood-ocular barriers to intravascular dye ([7]; not told): markedly less permeable to intravascular carboxyfluorescein than to fluorescein
- Persistence of stain ([10]; corneal abrasion, observation 30 to 45 minutes): persisted but lessened in intensity
- Staining of corneal epithelial defect ([10]; experimental corneal abrasion): densely stained the corneal epithelial defect
- Hyperemia or corneal changes ([10]; in vivo): no apparent hyperemia or corneal changes
- Reaction / subjective discomfort ([10]; in vivo): did not react in a negative fashion
- Visibility in tear film ([10]; topical, blue light): seen in the tear film
